“Also recorded” adds a separate entry of the source. Where two headings read alike, the source gives them in different places.
Experiments:
[1] = system: SHH signaling in SHH organizer-containing organoids; assay: Example 6.2: SHH organizer-containing organoids treated with cholesterol inhibitors (FIGS. 15-16); type: cell-based, human; conditions: for SHH signaling (PAX6+ extent of organoid): FIG. 15; for long-range and short-range SHH signaling: FIG. 16
Method: To evaluate the effect of statins on fetal development, in certain embodiments SHH organizer-containing organoids are treated with statins.
FIG. 16 summarizes the effects of cholesterol inhibition on SHH organizer-containing organoids.

[2] = system: SHH signaling activity in SHH-organoids; assay: Drug treatment of SHH-organoids, positional domains analysed at day 20; type: cell-based, human; conditions: day 20 SHH-organoids
Method: Day 20 organoids were fixed in 4% PFA overnight at 4° C. and washed three times with PBS the next day. […] Sections were blocked for 30 minutes in 10% FBS, 1% BSA, 0.3% triton in PBS, and incubated as floating section in primary antibody overnight. The next day, sections were washed with PBS and incubated as floating section in secondary antibody for 3 hours at room temperature. Day 6 organoids were fixed in 4% PFA for 2 hours at 4° C. and washed three times with PBS. After fixation, tissue was cryoprotected in 30% sucrose/PBS and sectioned at […] and mounted directly onto slides prior to immunofluorescence assays.
Organoid topography was quantified by first dividing each image into a grid of […] squares (day 20 analysis) or […] squares (day 6 analysis) that form a Cartesian coordinate grid. Each square is a discrete region of interest (ROI) that is associated with an X and Y coordinate. The origin of the grid was calculated for each image as the “center of mass” of the iSHH-organizer cells: CMx=S mixi/M and CMy=S miyi/M, where m=grey value intensity of iSHH cells for individual ROIs, x or y=coordinate, and M=total intensity for all ROIs, and the sum includes all x or y coordinates in the image. Next, ROI's that were positive for expression of a given protein (e.g. PAX6) were defined by thresholding staining intensity and determining ROIs with positive immunoreactivity. The linear distance from the origin to each ROI (sqrt((ROIx-CM^x)^2+(ROIy-CMy)^2)) was calculated. The present study analyzed every sixth section for each regional marker per organoid (typically 2-5 sections/organoid, depending on organoid size), thus sampling the organoids in 150 μm intervals using uniform random sampling.

SHH-organoids [3] = system: SHH-organoids
[4] = system: SHH signaling activity in SHH-organoids; assay: Drug treatment of SHH-organoids, NKX2.2 induction at day 6; type: cell-based, human; conditions: day 6 organoids
Method: Day 20 organoids were fixed in 4% PFA overnight at 4° C. and washed three times with PBS the next day. After fixation, tissue was cryoprotected in 30% sucrose/PBS and sectioned at […] on a cryostat (Leica 3050 S). Sections were blocked for 30 minutes in 10% FBS, 1% BSA, 0.3% triton in PBS, and incubated as floating section in primary antibody overnight. The next day, sections were washed with PBS and incubated as floating section in secondary antibody for 3 hours at room temperature. Day 6 organoids were fixed in 4% PFA for 2 hours at 4° C. and washed three times with PBS. After fixation, tissue was cryoprotected in 30% sucrose/PBS and sectioned at […] and mounted directly onto slides prior to immunofluorescence assays.
Organoid topography was quantified by first dividing each image into a grid of […] squares (day 20 analysis) or […] squares (day 6 analysis) that form a Cartesian coordinate grid. […] The origin of the grid was calculated for each image as the “center of mass” of the iSHH-organizer cells: CMx=S mixi/M and CMy=S miyi/M, where m=grey value intensity of iSHH cells for individual ROIs, x or y=coordinate, and M=total intensity for all ROIs, and the sum includes all x or y coordinates in the image. […] The linear distance from the origin to each ROI (sqrt((ROIx-CM^x)^2+(ROIy-CMy)^2)) was calculated. […]

SW480 cells = conditions: cited from earlier work
SHH-organoids [5] = assay: Drug treatment of SHH-organoids, organoid and organizer size at day 20
[6] = lovastatin 5 μM, AY9944 1.25 μM, cyclopamine 1 μM
[7] = doxycycline 400 ng/ml, lovastatin 5 μM, AY9944 1.25 μM

In the case of `CC1=C2C[C@H]3[C@@H](CC=C4C[C@@H](O)CC[C@@]43C)[C@@H]2CC[C@]12O[C@@H]1C[C@H](C)CN[C@H]1[C@H]2C` [cyclopamine], the “SHH signaling (PAX6+ extent of organoid)” value [1] is reported as “no SHH signaling”, the “long-range and short-range SHH signaling” value [1] is reported as “block all SHH signaling” and the PAX6 expression ([2]; doxycycline 400 ng/ml, cyclopamine 1 μM) is reported as “nearly uniform for PAX6 expression; also recorded: largely express PAX6”. For the same compound, the “NKX2.1 expression in or near the organizer” value (shortened to “NKX2.1 expression”) [2, 6] was “not”.
For `Clc1ccccc1CNCC1CCC(CNCc2ccccc2Cl)CC1` (centres unmarked) [AY9944], the “overall organoid size / growth” value (SHH-organoids [3]) was “impaired growth”, the “size of the organizer” value (SHH-organoids [3]) was “did not reduce the size of the organizer itself” and the NKX2.2 induction ([4]; all concentrations tested) was “strongly inhibited NKX2.2 induction at all concentrations tested; also recorded: strongly inhibits induction of NKX2.2”. For the same compound, the “SHH signaling (PAX6+ extent of organoid)” value [1] was “largely blocked SHH signaling”, the “long-range and short-range SHH signaling” value [1] was “block long-range SHH signaling, but not short range signaling” and the “SHH signaling activity (efficacy and range)” value ([2]; doxycycline 400 ng/ml, drug day 0-10, lovastatin 5 μM, AY9944 1.25 μM, cyclopamine 1 μM) was “reduced the efficacy and range of SHH signaling activity; also recorded: strong reduction the range of SHH-signaling activity”. For the same compound, the NKX2.2 induction [2, 7] was “largely blocked; also recorded: fail to induce NKX2.2” and the “NKX2.1 expression” value [2, 6] was “retained diencephalic NKX2.1 expression; also recorded: only retain NKX2.1 expression in the immediate vicinity of the organizer; also recorded: retain NKX2.1 and OTX2 expression within the organizer”.
For `Oc1nc(-c2ccc(C(F)(F)F)cc2)nc2c1CSCC2` [XAV939], the “degradation of β-catenin” value (SW480 cells) is listed as “promotes the degradation of β-catenin” and the “protein levels of the axin-GSK3β complex” value (SW480 cells) is listed as “increases the protein levels of the axin-GSK3β complex”.
For `CC[C@H](C)C(=O)O[C@H]1C[C@@H](C)C=C2C=C[C@H](C)[C@H](CC[C@@H]3C[C@@H](O)CC(=O)O3)[C@H]21` [Lovastatin], the “distance at which NKX2.2 is induced from the organizer” value ([4]; lovastatin 2, 5, 20 μM) was “reduced the distance at which NKX2.2 is induced from the organizer in a dose-dependent manner; also recorded: dose-dependent reduction”, the “size of the organizer” value (SHH-organoids [5]) was “did not reduce the size of the organizer itself” and the “overall organoid size / growth” value (SHH-organoids [5]; drug day 0-10) was “impaired growth”. For the same compound, the GSH2 expression domain ([2]; doxycycline 400 ng/ml, lovastatin 5 μM) was “concomitant increase in GSH2 expression; also recorded: increase in the relative area of the GSH2 expression domain”, the NKX2.2 induction [2, 7] was “partial block in NKX2.2 induction; also recorded: moderate reduction in NKX2.2 induction” and the “NKX2.1 expression” value [2, 6] was “retained diencephalic NKX2.1 expression; also recorded: retain NKX2.1 and OTX2 expression within the organizer”.

— patent US12404489B2, “Establishing topographic organization in three-dimensional tissue culture” (MEMORIAL SLOAN-KETTERING CANCER CENTER, priority 2017, dated 2025)
